Data on 32 molecules can be found in patent US20080293771A1, “AZACYCLYLBENZAMIDE DERIVATIVES AS HISTAMINE-3 ANTAGONISTS” (Wyeth, priority 2007, published 2008).

The target in data set [1] is T1, Human Histamine H3 Receptor (Homo sapiens, UniProt Q9Y5N1).
T1 construct: expressed in transfected cells; host or cells: HEK293T (stably transfected; membrane preparation)
The data set can be described thus: Methyl histamine binding in Human Histamine H3 Receptor Cell Line. As to conditions: read-out: hH3 Binding Ki. Here is the method: Evaluation of Methyl histamine binding in Human Histamine H3 Receptor Cell Line
The affinity of test compounds for the histamine 3 (H3) receptor is evaluated in the following manner. […] Cells are scraped from the plate, transferred to centrifuge tubes, washed one time in PBS by centrifugation in a Sorvall RT7 Plus centrifuge (2000 rpm 10 minutes, 4° C.). The resulting pellets are stored at −80° C. until ready for use. Cells are re-suspended in buffer (50 mM Tris pH=7.5) and placed in a Dounce homogenizer, douncing ten times to homogenize cells. The homogenate is spun down by centrifugation (Sorvall RT7 Plus, 1800 rpm 10 minutes, 4° C.). The supernatant is placed in a Corex tube and spun down by centrifugation (Sorvall RC 5c Plus, 17,000 rpm 20 minutes, 4° C.). The pellet is resuspended in buffer (50 mM Tris, pH 7.5). Protein concentration (ug/ul) is determined using the Micro-BCA Protein Determination. The binding assay is set up in a 96 well microtiter plate in a total volume of 250 uL. Non-specific binding is determined in the presence of 10 uM clobenpropit. The final radioligand concentration is 1 nM. The test compound is serially diluted using the Beckman Biomek2000 to a final approximate range of 100 uM to 100 pM. Membranes are suspended in buffer, homogenized in 2 bursts of ten seconds using a Vitris mechanical homogenizer set at power setting 5. Ten μg of membranes are added to each well. Following a one hour incubation at 30° C., the reaction is terminated by the addition of ice cold buffer and rapid filtration with a Packard Filtermate Harvester through a GF/B filter pre-soaked with 1% PEI for one hour. The plate is dried for one hour at 37° C. and 60 μL Microscint Scintillant is added to each well. The CPM per well is measured on a Packard Top Count NXT. Ki values are determined in nM. […] CPM values are expressed as % specific binding and plotted vs compound concentration. A curve is fitted using a four-parameter logistic fit and the IC50 value is determined. The Ki is calculated from this using the Cheng-Prusoff equation: […]=IC50/1+(L/Kd) where L=concentration of free radioligand used in the assay, and Kd is the dissociation constant of the radioligand for the receptor. L is determined for each experiment by counting an aliquot of the diluted radioligand (corresponding to that added to each well) and the Kd has previously been determined under identical conditions for this cell line/radioligand.

pKi: −log10 of the molar value. Structures can show the parent of a compound that is named as a salt.

For orientation: pKi means the negative decadic logarithm of the Ki, by convention in mol/L. In general, melting point refers to the temperature of the solid-liquid transition.

T1 sequence (Q9Y5N1 whole entry): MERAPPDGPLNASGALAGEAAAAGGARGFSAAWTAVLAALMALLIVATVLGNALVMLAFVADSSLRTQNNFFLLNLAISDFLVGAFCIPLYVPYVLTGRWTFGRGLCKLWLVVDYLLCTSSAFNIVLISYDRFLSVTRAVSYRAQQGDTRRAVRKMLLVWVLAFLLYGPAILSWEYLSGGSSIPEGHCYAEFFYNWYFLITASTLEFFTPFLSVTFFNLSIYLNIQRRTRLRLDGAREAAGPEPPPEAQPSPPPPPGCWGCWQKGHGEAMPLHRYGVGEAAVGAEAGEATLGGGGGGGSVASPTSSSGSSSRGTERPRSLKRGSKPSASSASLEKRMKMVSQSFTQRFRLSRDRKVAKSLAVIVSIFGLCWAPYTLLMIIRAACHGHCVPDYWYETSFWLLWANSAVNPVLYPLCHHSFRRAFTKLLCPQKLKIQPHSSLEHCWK

With `Cc1nc2ccccc2n1-c1ccc(C(=O)N(C)C2CCN(C3CCCC3)CC2)cc1` [Example 32, N-(1-cyclopentylpiperidin-4-yl)-N-methyl-4-(2-methyl-1H-benzimidazol-1-yl)benzamide], the pKi in data set [1] was at least 8.00. On the same count and under the same terms, the same measure for `CN(C(=O)c1ccc(Cn2ncc3ccccc32)cc1)[C@@H]1CCNC1` [Example 75, (R)-4-((1H-indazol-1-yl)methyl)-N-methyl-N-(pyrrolidin-3yl)benzamide]: below 7.00.

`Cc1nc2ccccc2n1Cc1ccc(C(=O)N(C)C2CCN(C3CCC3)CC2)cc1` [Example 47, N-(1-cyclobutylpiperidin-4-yl)-N-methyl-4-[(2-methyl-1H-benzimidazol-1-yl)methyl]benzamide]: the pKi in data set [1] was below 7.00. As for `CN(C(=O)c1ccc(-n2ncc3ccccc32)cc1)[C@@H]1CCNC1` [Example 60b, (R)-4-Indazol-1-yl-N-methyl-N-pyrrolidin-3-yl-benzamide], in data set [1], the pKi is below 7.00.

Regarding `Cc1nc2ccccc2n1-c1ccc(C(=O)N(C)[C@@H]2CCN(C3CCC3)C2)cc1F` [Example 104, N-[(3R)-1-cyclobutylpyrrolidin-3-yl]-3-fluoro-N-methyl-4-(2-methyl-1H-benzimidazol-1-yl)benzamide], the pKi in data set [1] was 7.30 to 8.00. Same read-out and setting: the result for `CN(C(=O)c1ccc(Cn2cnc3ccccc32)cc1)C1CCN(C2CCCC2)CC1` [Example 51, 4-(1H-benzimidazol-1-ylmethyl)-N-(1-cyclopentylpiperidin-4-yl)-N-methylbenzamide] reads below 7.00. Same read-out and setting: the same measure for `Cc1nc2ccccc2n1Cc1ccc(C(=O)N(C)[C@@H]2CCNC2)cc1` [Example 35, N-Methyl-4-[(2-methylbenzimidazol-1-yl)methyl]-N—(R)-pyrrolidin-3-yl-benzamide Hydrochloride]: below 7.00; for `Cc1nc2cc(C#N)ccc2n1-c1ccc(C(=O)N(C)[C@@H]2CCN(C(C)C)C2)cc1` [Example 54, 4-(5-cyano-2-methyl-1H-benzimidazol-1-yl)-N-[(3R)-1-isopropylpyrrolidin-3-yl]-N-methylbenzamide]: at least 8.00. The same measure, in the same setting: the result for `CN(C(=O)c1ccc(-n2cc3ccccc3n2)cc1)[C@@H]1CCN(C2CCC2)C1` [Example 62, N-[(3R)-1-cyclobutylpyrrolidin-3-yl]-4-(2H-indazol-2-yl)-N-methylbenzamide] reads at least 8.00; that for `CC(C)N1CCC(N(C)C(=O)c2ccc(-n3cccn3)cc2)CC1` [Example 85, N-(1-isopropylpiperidin-4-yl)-N-methyl-4-(1H-pyrazol-1-yl)benzamide], below 7.00; that for `CN(C(=O)c1ccc(-n2cc3ccccc3n2)cc1)C1CCN(C2CCC2)CC1` [Example 70, N-(1-cyclobutylpiperidin-4-yl)-4-(2H-indazol-2-yl)-N-methylbenzamide], below 7.00. As for `CN(C(=O)c1ccc(-n2cc3ccccc3n2)cc1)[C@@H]1CCNC1` [Example 60a, (R)-4-Indazol-2-yl-N-methyl-N-pyrrolidin-3-yl-benzamide], the pKi in data set [1] was below 7.00. Still for that read-out and setting: the same measure for `CC(C)N1CCC(N(C)C(=O)c2ccc(-n3ncc4ccccc43)cc2)CC1` [Example 72, 4-(1H-indazol-1-yl)-N-(1-isopropylpiperidin-4-yl)-N-methylbenzamide]: 7.00 to 7.30; for `CC(C)N1CC[C@@H](N(C)C(=O)c2ccc(-n3cc4ccccc4n3)cc2)C1` [Example 61, 4-(2H-indazol-2-yl)-N-[(3R)-1-isopropylpyrrolidin-3-yl]-N-methylbenzamide]: at least 8.00. As for `Cc1nc2cc(C#N)ccc2n1-c1ccc(C(=O)N(C)[C@@H]2CCN(C3CCCC3)C2)cc1` [Example 56, 4-(5-cyano-2-methyl-1H-benzimidazol-1-yl)-N-[(3R)-1-cyclopentylpyrrolidin-3-yl]-N-methylbenzamide], the pKi in data set [1] is 7.30 to 8.00. Same read-out and setting: the result for `CN(C(=O)c1ccc(Cn2ncc3ccccc32)cc1)C1CCN(C2CCCC2)CC1` [Example 81, N-(1-cyclopentylpiperidin-4-yl)-4-(1H-indazol-1-ylmethyl)-N-methylbenzamide] reads below 7.00. The same measure, in the same setting: the same measure for `CN(C(=O)c1ccc(-n2ncc3ccccc32)cc1)[C@@H]1CCN(C2CCC2)C1` [Example 65, N-[(3R)-1-cyclobutylpyrrolidin-3-yl]-4-(1H-indazol-1-yl)-N-methylbenzamide]: at least 8.00. Turning to `CN(C(=O)c1ccc(Cn2ncc3ccccc32)cc1)C1CCN(C2CCC2)CC1` [Example 80, N-(1-cyclobutylpiperidin-4-yl)-4-(1H-indazol-1-ylmethyl)-N-methylbenzamide], the pKi in data set [1] was below 7.00. Still for that read-out and setting: the result for `Cc1nc2ccccc2n1-c1ccc(C(=O)N(C)[C@@H]2CCN(C(C)C)C2)c(Cl)c1` [Example 105, 2-chloro-N-methyl-4-(2-methyl-1H-benzimidazol-1-yl)-N-[(3R)-1-(1-methylethyl)pyrrolidin-3-yl]benzamide] reads 7.30 to 8.00; that for `Cc1nc2ccccc2n1-c1ccc(C(=O)N(C)C2CCN(C3CCCCC3)CC2)cc1` [Example 33, N-(1-cyclohexylpiperidin-4-yl)-N-methyl-4-(2-methyl-1H-benzimidazol-1-yl)benzamide], below 7.00; that for `Cc1nc2ccccc2n1-c1ccc(C(=O)N(C)C2CCN(C3CCC3)CC2)cc1` [Example 34, N-(1-cyclobutylpiperidin-4-yl)-N-methyl-4-(2-methyl-1H-benzimidazol-1-yl)benzamide], 7.30 to 8.00. As to `Cc1nc2ccccc2n1-c1ccc(C(=O)N(C)C2CCN(C(C)C)CC2)cc1` [Example 31, N-(1-isopropylpiperidin-4-yl)-N-methyl-4-(2-methyl-1H-benzimidazol-1-yl)benzamide], the pKi in data set [1] is at least 8.00. Same read-out and setting: the result for `CC(C)N1CCC(N(C)C(=O)c2ccc(Cn3cccn3)cc2)CC1` [Example 91, N-methyl-N-[1-(1-methylethyl)piperidin-4-yl]-4-(1H-pyrazol-1-ylmethyl)benzamide] reads below 7.00; that for `CCN(C(=O)c1ccc(-n2c(C)nc3ccccc32)cc1)[C@@H]1CCNC1` [Example 138, (R)—N-ethyl-4-(2-methyl-1H-benzo[d]imidazol-1-yl)-N-(pyrrolidin-3-yl)benzamide hydrochloride], below 7.00. `CC(C)N1CCC(N(C)C(=O)c2ccc(Cn3ncc4ccccc43)cc2)CC1` [Example 79, 4-(1H-indazol-1-ylmethyl)-N-(1-isopropylpiperidin-4-yl)-N-methylbenzamide]: the pKi in data set [1] was 7.00 to 7.30. Still for that read-out and setting: the result for `Cc1nc2ccccc2n1-c1ccc(C(=O)N(C)C2CCN(C(C)C)CC2)c(Cl)c1` [Example 121, 2-chloro-N-methyl-4-(2-methyl-1H-benzimidazol-1-yl)-N-[1-(1-methylethyl)piperidin-4-yl]benzamide] reads at least 8.00. On the same count and under the same terms, the same measure for `Cc1nc2ccccc2n1-c1ccc(C(=O)N(C)C2CCN(C3CCCC3)CC2)c(Cl)c1` [Example 122, 2-chloro-N-(1-cyclopentylpiperidin-4-yl)-N-methyl-4-(2-methyl-1H-benzimidazol-1-yl)benzamide]: 7.00 to 7.30; for `Cc1nc2ccccc2n1-c1ccc(C(=O)N(C)[C@@H]2CCN(C(C)C)C2)cc1F` [Example 103, 3-fluoro-N-methyl-4-(2-methyl-1H-benzimidazol-1-yl)-N-[(3R)-1-(1-methylethyl)pyrrolidin-3-yl]benzamide]: 7.30 to 8.00; for `CN(C(=O)c1ccc(Cn2cnc3ccccc32)cc1)C1CCN(C2CCC2)CC1` [Example 50, 4-(1H-benzimidazol-1-ylmethyl)-N-(1-cyclobutylpiperidin-4-yl)-N-methylbenzamide]: below 7.00. In turn, `Cc1nc2ccccc2n1Cc1ccc(C(=O)N(C)[C@@H]2CCN(C3CCCCC3)C2)cc1` (as salt: hydrochloride) [Example 40, N-[(3R)-1-cyclohexylpyrrolidin-3-yl]-N-methyl-4-[(2-methyl-1H-benzimidazol-1-yl)methyl]benzamide] came in with a melting point of 188 to 190 °C. The same measure, in the same setting: the result for `Cc1nc2ccccc2n1-c1ccc(C(=O)N(C)C2CCN(C(C)C)CC2)cc1` (as salt: hydrochloride) [Example 31, N-(1-isopropylpiperidin-4-yl)-N-methyl-4-(2-methyl-1H-benzimidazol-1-yl)benzamide] reads 282 to 284 °C. Same read-out and setting: the same measure for `Cc1nc2ccccc2n1-c1ccc(C(=O)N(C)C2CCNCC2)cc1` (as salt: hydrochloride) [Example 30, N-Methyl-4-(2-methylbenzimidazol-1-yl)-N-piperidin-4-yl-benzamide Hydrochloride]: 219 to 221 °C.
